Laboratory results taken from US9663453B2, “Metabolites and oximes with vasodilator and hypotensive activity” (Universidad de Antofagasta, priority 2014, dated 2017).
Several values for one entry are separate records, joined by “and”; a condition that tells them apart may be missing. Identical values can stand only once. Like-named read-outs stand apart in the source and are kept apart here.

Experiments:
[1] = test system: PHE-precontracted rat aorta with endothelium (E+); assay: Vasodilator effect in PHE-precontracted rat aortic rings with intact endothelium (E+); format: cell-based; settings: for EC50: read-out: EC50 (concentration required to achieve 50% relaxation of tissue)
Experimental: (§1) 3-5 months old rats with an average weight of 270±30 g, were used for vascular reactivity experiments.
(§2) Measure of Dilation Activity in Rat Aortic Rings
(§3) Obtaining Aorta rings: Group II rats fasted 24 hours were euthanized by cervical fracture. Thoracic aorta was excised carefully from distal to proximal, from the abdominal aortic bifurcation to aortic arch and placed in a Petri dish containing Krebs-Ringer solution at room temperature with the following composition: 120 mM NaCl; 4.2 mM KCl; 1.18 mM KH2PO4; 1.2 mM MgSO4; 1.3 mM CaCl2; 5 mM C6H12O6; and 25 mM NaHCO3 pH 7.4 and constantly gasified with a mixture of 95% O2 and 5% CO2. After removing blood, fat and connective tissue, the aorta was transversely cut in cylindrical rings 2-3 mm in diameter.
(§4) Mounting of Rings: Each ring was mounted between two triangular stainless steel hooks, one hook was suspended in a glass rod (anchorage) and placed in a Single Organ Chamber with 10 ml Krebs-Ringer constantly aerated with 95% O2 and 5% CO2 gaseous mixture and maintained at 37° C. by thermo regulated pump. The second hook was connected by a thread to an Isometric Force Transducer XDCR (Radnoti Glass Technology Inc. USA.), connected to a data acquisition unit PowerLab 8/30 (ADInstruments). The data were processed using LabChart 7 Pro software, provided by ADInstruments.
(§5) Conditioning of Tissue: After being mounted rings were left to rest with no tension for 30 minutes. Subsequently Krebs-Ringer solution was replaced and rings were allowed to rest for 10 minutes. The rings were then carefully tensioned twice at intervals of 10 minutes each at 1.00 g tension value using micromanipulators. Two settings of tension at 1.40 g at 10 minutes interval each were then made. After the period of stabilization of the tissue, tissue viability was assessed by the addition of solution of 60 mM potassium chloride (KCl). After 10 minutes of contraction of the tissue, it was washed twice at intervals of 5 minutes each before the next addition of KCl.
(§6) Measure of vasodilatory activity: The aortic tissue with endothelium already conditioned was applied a tension of 1.4 g, 1 μM PHE solution was added after 10 minutes. PHE was added cumulatively to each single organ bath after stabilization of PHE-induced contractile response. Stock solutions of 10^−1 M concentration in DMSO were prepared to determine the vasodilatory activity of the isolated metabolites. […] The vasodilator effect was recorded for a period of 30 minutes for each of the concentrations used (FIG. 1). The results are expressed as relaxation percent using the following formula: […]
(§7) wherein R1 is the response induced by PHE and R2 is the response after the extracts are added.
(§8) Endothelium integrity was tested by addition of 1 μM ACh to rings precontracted with 1 uM PHE, and rings were considered with intact endothelium when the ACh dilator response was greater than 80%. While rings with response lower than 10% were discarded (FIG. 2).
(§9) Vascular reactivity experiments were performed to establish the vasodilator action of the isolated compounds. For this, compounds at concentration of 10^−4M were added to the organ chamber, the vasodilatory effect in rings with intact endothelium (E+) and without endothelium (E−) pre-contracted with 1 μM PHE was quantified. We performed parallel vehicle control (DMSO) to discard the relaxing effect of aortic tissue.

[2] = test system: anesthetized rats; assay: In vivo hypotensive effect in anesthetized rats (mean blood pressure after intravenous administration); settings: for % MBP reduction / MBP: mean ± SE
Experimental: Animals used were female albino rats of the Sprague-Dawley strain, obtained from the vivarium of the Universidad de Antofagasta. Two groups of animals were used separated by age:
10-14 months old rats with an average weight of 400±70 g, were used for in vivo experiments. These animals were chosen according to their baseline health status of mild hypertension.
In Vivo Tests—Hypotensive Effect in Anesthetized Rats In vivo experiments were performed using the following protocol. Group I rats were anesthetized with a 5% sodium thiopental aqueous solution at doses of 50 mg/kg animal body weight by intraperitoneal injection. The femoral vein was exposed and cannulated with a PE-10 […] catheter for administering extracts, metabolites and drugs. The right carotid artery was exposed and cannulated using a PE-50 […] catheter filled with heparinized saline (100 IU/mL). This catheter was connected to a pressure transducer (TSD104A) coupled to a data acquisition unit MP100 (BIOPAC Systems Inc) for recording blood pressure. The trachea was exposed and cannulated to facilitate spontaneous breathing of animals. Simultaneously, an ECG recording in derivation II (DII-ECG) was performed using an ECG100B (BIOPAC Systems Inc) module connected to a data acquisition unit MP100. The level of anesthesia of the animals was under constant supervision, so as to remain within surgical levels.
Prior to administration of the next dose, blood pressure and ECG recording were monitored until complete recovery of baseline parameters (pressure and ECG). Effects of each administered dose was measured relative to changes in mean blood pressure, diastolic blood pressure, systolic blood pressure, electrocardiographic changes and compared against the effect of propranolol as a positive control at concentration of 10 mg/Kgweight. After completion of each experiment animals were euthanized by an overdose of anesthetic, by femoral route. The results are expressed as % reduction in BMP, parameter determined using the following equation.
Wherein B is the baseline BMP and E is the value of BMP produced by different doses studied.
All records were performed using 3.9.6.1 Acknowledge software (BIOPAC Systems Inc) and statistical analysis was performed using GraphPad Prism 5.03 software (GraphPad Software Inc.)

[3] = test system: PHE-precontracted rat aorta without endothelium (E−); assay: Vasodilator effect in PHE-precontracted rat aortic rings without endothelium (E−); format: cell-based; settings: for Emax at 100 µM: read-out: Emax, maximum relaxation effect; for EC50: dose-response curve; for Emax: read-out: Emax (% relaxation) of dose-response curve
Experimental: as §1, §2, §3, §4, §5, §6, §7, §8, §9

[4] = Rattus norvegicus, compound at 10^−4 M, rings with intact endothelium (E+) pre-contracted with 1 μM PHE, FIG. 5A, read-out: Emax (% relaxation)
[5] = Rattus norvegicus, dose-response curve, E+
[6] = Rattus norvegicus, maximum effect at 10^−4 M, increasing doses, E+, read-out: Emax (% relaxation) of dose-response curve
[7] = Rattus norvegicus, compound at 10^−4 M, rings without endothelium (E−) pre-contracted with 1 μM PHE, FIG. 5B
[8] = Rattus norvegicus, increasing doses up to 10^−4 M, E−
[9] = dose 10^−8 (head: mg/Kgweight; text: M), intravenous
[10] = dose 10^−9 (head: mg/Kgweight; text: M), intravenous
[11] = dose 10^−10 (head: mg/Kgweight; text: M), intravenous
[12] = positive control, propranolol 10^−6 M

`CC(=O)OCC[N+](C)(C)C` [ACh, acetylcholine, reference compound] gave an Emax at 1 µM ([1]; Rattus norvegicus, 10^−6 M ACh, rings with intact endothelium (E+), FIG. 5A, read-out: Emax (% relaxation), positive control) of 105 ± 5%.
`CC(=O)c1ccc(O)c(CC=C(C)C)c1` [Metabolite (A), 4-hydroxy-3-(isopenten-2-yl)-acetophenone] was tested, and the “% MBP reduction” value ([2]; dose 10^−4 M, intravenous) was 46.93±1.01%, the MBP ([2]; dose 10^−4 M, intravenous) was 72.12 ± 2.92 mmHg and the “% MBP reduction” value ([2]; dose 10^−4 M, intravenous, listed as Metabolite 1) was 46.93 ± 1.01%. For the same molecule, the “% MBP reduction” value ([2]; dose 10^−5 M, intravenous) was 45.37 ± 1.09%, the MBP ([2]; dose 10^−5 M, intravenous) was 74.24 ± 2.76 mmHg and the “% MBP reduction” value ([2]; dose 10^−6 M, intravenous) was 35.92 ± 2.01%. For the same molecule, the MBP ([2]; dose 10^−6 M, intravenous) was 87.09 ± 1.14 mmHg, the “% MBP reduction” value ([2]; dose 10^−7 M, intravenous) was 29.68 ± 3.42% and the MBP ([2]; dose 10^−7 M, intravenous) was 95.56 ± 5.01 mmHg. The “% MBP reduction” value ([2]; dose 10^−8 M, intravenous) was 25.68 ± 5.24%, the MBP ([2]; dose 10^−8 M, intravenous) was 101.0 ± 8.06 mmHg and the “% MBP reduction” value ([2]; dose 10^−9 M, intravenous) was 23.62 ± 5.76%. The MBP ([2]; dose 10^−9 M, intravenous) was 103.8 ± 7.98 mmHg, the “% MBP reduction” value ([2]; dose 10^−10 M, intravenous) was 16.56 ± 9.38% and the MBP ([2]; dose 10^−10 M, intravenous) was 113.4 ± 12.59 mmHg. The “concentration from which the effect on MBP starts being significant” value ([2]; intravenous, anesthetized rats) was ≥ 10^−6 M, the Emax at 100 µM [1, 4] was 122 ± 2.09% and the EC50 [1, 5] was 8.98 nM. The Emax at 100 µM [1, 6] was 111 ± 7.62%, the “concentration from which the vasodilator effect started” value ([1]; dose-response curve, E+) was ≥ 10^−8 M and the Emax at 100 µM [3, 7] was 118 ± 10.7%. It also gave an EC50 ([3]; Rattus norvegicus, E−) of 7.31 nM and an Emax [3, 8] of 109 ± 7.53%.
Molecule `C=C(C)[C@@H]1Cc2cc(C(C)=O)c(O)cc2O1` [Metabolite (B), 6-hydroxy-2-isopropenyl-5-acetyl-2,3-dihydrobenzofuran] has an Emax at 100 µM [1, 4] of 135 ± 3.78%, an EC50 [1, 5] of 7.16 nM and an Emax at 100 µM [1, 6] of 112 ± 6.21%. The “concentration from which the vasodilator effect started” value ([1]; dose-response curve, E+) was ≥ 10^−8 M, the Emax at 100 µM [3, 7] was 146 ± 4.49% and the EC50 ([3]; Rattus norvegicus, E−) was 5.94 nM. For the same molecule, the Emax [3, 8] was 109 ± 7.53%.
In the case of `CC(C)=CCc1cc(/C(C)=N/O)ccc1O` [Oxime (1), 4-hydroxy-3-(isopenten-2-yl)-acetophenoxime], the “% MBP reduction” value ([2]; dose 10^−7 (head: mg/Kgweight; text: M), intravenous, maximum effect) is reported as 70.61 ± 4.32%, the “% MBP reduction” value ([2]; dose 10^−7 (head: mg/Kgweight; text: M), intravenous, maximum effect, listed as oxime (1)) is reported as 70.61±4.32% and the MBP ([2]; dose 10^−7 (head: mg/Kgweight; text: M), intravenous) is reported as 41.65 ± 0.85 mmHg. The “% MBP reduction” value [2, 9] was 58.31 ± 3.26%, the MBP [2, 9] was 59.05 ± 2.09 mmHg and the “% MBP reduction” value [2, 10] was 38.41 ± 2.35%. For the same molecule, the MBP [2, 10] was 87.28 ± 1.90 mmHg, the “% MBP reduction” value [2, 11] was 36.60 ± 7.90% and the MBP [2, 11] was 89.84 ± 10.88 mmHg. The “concentration from which the effect on MBP starts being significant” value ([2]; intravenous, anesthetized rats) was ≥ 10^−9 M, the “doses that induced acute hypotension and subsequent animal death by cardiac arrest” value ([2]; intravenous, anesthetized rats) was “higher than 10^−7 M” and the Emax at 100 µM [1, 4] was 130 ± 2.54%. For the same molecule, the EC50 [1, 5] was 6 nM, the Emax at 100 µM [1, 6] was 119 ± 3.92% and the tissue relaxation ([1]; at concentration 10^−5 M, dose-response curve, E+) was 101.6±0.90%. For the same molecule, the “concentration from which the vasodilator effect started” value ([1]; dose-response curve, E+) was ≥ 10^−9 M, the Emax at 100 µM [3, 7] was 120 ± 1.74% and the EC50 ([3]; Rattus norvegicus, E−) was 6.56 nM. For the same molecule, the Emax [3, 8] was 114 ± 6.19%.
For `C=C(C)C1Cc2cc(C(C)=NO)c(O)cc2O1` (centres unmarked) [Oxime (2), 6-hydroxy-2-isopropenyl-5-acetyloxime-2,3-dihydrobenzofuran], the “Emax (% relaxation)” value ([1]; compound at 10^−4 M, rings with intact endothelium (E+) pre-contracted with 1 μM PHE, FIG. 5A) was 118.4±0.93%, the “concentration from which the vasodilator effect started” value ([1]; dose-response curve, E+) was ≥ 10^−8 M and the EC50 ([1]; dose-response curve, E+) was 4.3 nM. The “Emax (% relaxation) of dose-response curve” value ([1]; maximum effect at 10^−4 M, increasing doses, E+) was 109.3±2.72%, the “Emax, maximum relaxation effect” value ([3]; compound at 10^−4 M, rings without endothelium (E−) pre-contracted with 1 μM PHE, FIG. 5B) was 117.7±1.00% and the EC50 ([3]; E−) was 4.65 nM. The “Emax (% relaxation) of dose-response curve” value ([3]; increasing doses up to 10^−4 M, E−) was 110.3±4.40%.
For `CC(C)NCC(O)COc1cccc2ccccc12` (centres unmarked) [propranolol, reference compound], the “% MBP reduction” value [2, 12] was 18.99 ± 4.35% and 22.29 ± 3.20% and the MBP [2, 12] was 110.1 ± 6.03 mmHg and 108.70 ± 8.55 mmHg.
